Here are results for two compounds from US20080146555A1, “Uses of Kinase Inhibitors and Compositions Thereof” (GPC Biotech, Inc, priority 2004, published 2008).

Where a name gives a salt, the structure may show the parent alone. Read-outs that look alike come from different tables or passages of the source.

In experiment [1] the target is Cdk1 (Homo sapiens, UniProt P06493). In words: Cdk1 inhibition. The format is biochemical. An excerpt: (§1) Further inhibition results for subject compounds of the invention against other CDKs and further kinases are shown in Table 5, Table II and described in Example 6.
(§2) Table 3, Table 4, Table 5 and Table II show the results obtained for inhibition of a broad range of such kinases for subject compounds of the invention.

In experiment [2] the target is Cdk4 (Homo sapiens, UniProt P11802). As to the kind of experiment: Cdk4 inhibition. The format is biochemical.
Source text: as §1, §2

For experiment [3], the system named is KU812 leukemia cells (Bcr-Abl). In words: Proliferation of KU812 cells, calcein assay by flow cytometry. The format is cell-based. The conditions noted are these: Homo sapiens, KU812, 72 h, read-out: KU812 cells IC50 (proliferation). Here is the method: The proliferation of KU812 cells was assayed using the calcein viability assay described in Assay 3 but adapted for quantification by flow cytometry, briefly as follows: cells were recovered from sub-confluent plates by trypsinization and re-plated at a density of 1,000 cells/well in 24 well plates and incubated 24 hours to allow adherence. The media (RPMI-1640 supplemented with 10% FCS and Pen/Strep) was aspirated from each well and replaced with media containing the compound at a range from 0 to 0.250 μM. The plates were incubated for 3 days corresponding to approximately three cell cycles. Cellular viability was determined with the Calcein AM assay as follows. The cells were washed twice in PBS and incubated with 5 μM Calcein AM/PBS for 75 minutes before determining fluorescent units with a fluorescent plate reader. The Calcein AM assay was adapted for the flow cytometer by including an additional 1:16,000 dilution of the Calcein AM in PBS of which 200 ul was added to each sample of cells.

The subject of experiment [4] is HCT-116 cells. In words: Calcein AM viability assay, HCT-116. The format is cell-based. The conditions noted are these: Homo sapiens. The procedure, abridged:
(§3)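 Cells (HCT-116 1,000, IMR90 4,000 per well) adhered overnight, then received 7 doses from 0 to 250 nM for 72 h at 37 °C. Viability read as calcein fluorescence after 75 min with Calcein AM; IC50 values, with protein-adjusted values also obtained in HCT-116.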

Experiment [5] relates to normal human fibroblast, IMR90. In words: Calcein AM viability assay, IMR90. Type of experiment: cell-based. The conditions noted are these: IMR-90, text b600. In a few lines:
as §3

For experiment [6], the target named is T1, Rsk3 (Homo sapiens, UniProt Q15349).
T1 construct: purchased Upstate 14-462
In words: Rsk3 kinase assay. Type of experiment: biochemical. Here is the method: • 1. 2.5× Reaction Buffer: 20 mM MOPS, pH 7.0, 1 mM EGTA. • 2. Enzyme Dilution Buffer (EDB): 20 mM MOPS, pH 7.0, 1 mM EDTA, 0.01% Brij-35, 5% glycerol, 0.1% β-mercaptoethanol, 1 mg/ml BSA. • 3. RSK3, active: Dilute to 4-40 ng/μl with EDB. Use 2.5 μl per assay point. • 4. MAPKAP Kinase 2 substrate peptide (Catalog #12-240): Prepare a 2.5 mM stock. Use 2.5 μl per assay point for a final concentration of 250 μM per assay. • 5. Magnesium/ATP Cocktail (Catalog #20-113): 75 mM MgCl2 and 500 μM ATP in 20 mM MOPS, pH 7.2, 25 mM β-glycerol phosphate, 5 mM EGTA, 1 mM sodium orthovanadate, 1 mM dithiothreitol. • 6. [γ-^32P]ATP: Stock 1 mCi/100 μl (3000 Ci/mmol, obtained from PerkinElmer, Catalog #BLU002A). Make 10 μl aliquots (100 μCi/vial). Before starting the assay, dilute the Magnesium/ATP Cocktail 1:1 with sterile, distilled water. Then dilute an aliquot of [γ-^32P]ATP to 1 μCi/μl with 90 μl of the diluted Magnesium/ATP Cocktail. […]
• 1. Add 10 μl of 2.5× Reaction Buffer per assay. • 2. Add 2.5 μl of MAPKAP Kinase 2 substrate peptide. • 3. Add 2.5 μl of RSK3, active (10-100 ng). • 4. Add 10 μl of the diluted [γ^32P]ATP mixture. • 5. Incubate for 10 minutes at 30° C. • 6. Transfer a 20 μl aliquot onto the center of a 2 cm×2 cm P81 paper. • 7. Wash the assay squares three times for 5 minutes with 0.75% phosphoric acid. • 8. Wash the assay squares once for 5 minutes with acetone. • 9. Transfer the assay squares to vial and add 5 ml scintillation cocktail. • 10. Read in scintillation counter. Compare cpm of enzyme samples to cpm of control samples that contain background control.

Where [7] appears, read: HCT-116, non-protein adjusted, Table 4, read-out: HCT-116 viability IC50.
Setting [8] is: HCT-116, text b600, read-out: HCT-116 protein-adjusted viability IC50.
The mark [9] stands for this setting: HCT-116, text b600, read-out: HCT-116 viability IC50.
Setting [10] is: read-out: RPS6KA2 Inhibition (IC50).

T1 sequence (Q15349 whole entry, species assumed): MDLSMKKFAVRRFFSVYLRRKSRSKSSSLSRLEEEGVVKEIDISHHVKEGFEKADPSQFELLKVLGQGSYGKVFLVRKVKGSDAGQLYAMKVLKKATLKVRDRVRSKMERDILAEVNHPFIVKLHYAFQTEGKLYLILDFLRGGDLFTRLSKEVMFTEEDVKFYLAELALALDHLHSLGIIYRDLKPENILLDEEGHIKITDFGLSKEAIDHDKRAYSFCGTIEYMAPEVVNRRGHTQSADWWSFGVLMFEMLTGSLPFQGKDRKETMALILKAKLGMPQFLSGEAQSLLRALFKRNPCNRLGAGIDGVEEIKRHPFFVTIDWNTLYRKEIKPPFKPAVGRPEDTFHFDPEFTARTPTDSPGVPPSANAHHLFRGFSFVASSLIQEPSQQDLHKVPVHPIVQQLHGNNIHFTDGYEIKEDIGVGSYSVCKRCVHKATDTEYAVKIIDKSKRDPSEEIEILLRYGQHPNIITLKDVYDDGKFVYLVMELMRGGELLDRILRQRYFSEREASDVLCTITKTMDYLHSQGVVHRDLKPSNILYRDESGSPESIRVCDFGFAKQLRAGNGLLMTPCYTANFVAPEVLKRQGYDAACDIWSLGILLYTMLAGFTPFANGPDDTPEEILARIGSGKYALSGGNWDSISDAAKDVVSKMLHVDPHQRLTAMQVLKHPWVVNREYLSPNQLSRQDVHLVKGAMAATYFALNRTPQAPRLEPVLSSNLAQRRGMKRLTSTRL
Chain of Cdk4 (P11802 whole entry, species assumed): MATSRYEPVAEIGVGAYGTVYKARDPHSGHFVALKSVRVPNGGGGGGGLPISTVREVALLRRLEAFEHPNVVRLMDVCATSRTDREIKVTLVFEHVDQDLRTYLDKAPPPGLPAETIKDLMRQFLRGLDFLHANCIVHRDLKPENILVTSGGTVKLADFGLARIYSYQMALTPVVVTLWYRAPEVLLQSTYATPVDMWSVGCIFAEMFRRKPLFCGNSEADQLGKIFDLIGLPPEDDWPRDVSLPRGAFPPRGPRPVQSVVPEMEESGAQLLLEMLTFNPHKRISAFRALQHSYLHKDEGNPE
Chain of Cdk4 (P24385 whole entry partner, species assumed): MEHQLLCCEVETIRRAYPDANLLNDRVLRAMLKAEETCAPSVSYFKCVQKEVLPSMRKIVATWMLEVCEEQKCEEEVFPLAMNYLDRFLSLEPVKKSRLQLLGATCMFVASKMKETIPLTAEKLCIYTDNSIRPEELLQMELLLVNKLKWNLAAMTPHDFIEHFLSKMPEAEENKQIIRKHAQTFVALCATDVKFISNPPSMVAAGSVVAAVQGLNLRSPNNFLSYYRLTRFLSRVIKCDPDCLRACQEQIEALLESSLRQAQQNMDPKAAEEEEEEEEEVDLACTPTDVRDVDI
Chain of Cdk1 (P06493 whole entry, species assumed): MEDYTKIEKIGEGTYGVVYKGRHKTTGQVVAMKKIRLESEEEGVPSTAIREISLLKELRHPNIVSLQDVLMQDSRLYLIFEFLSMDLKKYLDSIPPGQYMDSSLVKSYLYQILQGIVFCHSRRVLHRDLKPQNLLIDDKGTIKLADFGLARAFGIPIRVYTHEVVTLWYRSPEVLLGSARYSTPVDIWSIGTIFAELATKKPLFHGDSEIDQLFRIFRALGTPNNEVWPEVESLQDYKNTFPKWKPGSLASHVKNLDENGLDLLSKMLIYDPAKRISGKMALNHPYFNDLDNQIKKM
Chain of Cdk1 (P14635 whole entry partner, species assumed): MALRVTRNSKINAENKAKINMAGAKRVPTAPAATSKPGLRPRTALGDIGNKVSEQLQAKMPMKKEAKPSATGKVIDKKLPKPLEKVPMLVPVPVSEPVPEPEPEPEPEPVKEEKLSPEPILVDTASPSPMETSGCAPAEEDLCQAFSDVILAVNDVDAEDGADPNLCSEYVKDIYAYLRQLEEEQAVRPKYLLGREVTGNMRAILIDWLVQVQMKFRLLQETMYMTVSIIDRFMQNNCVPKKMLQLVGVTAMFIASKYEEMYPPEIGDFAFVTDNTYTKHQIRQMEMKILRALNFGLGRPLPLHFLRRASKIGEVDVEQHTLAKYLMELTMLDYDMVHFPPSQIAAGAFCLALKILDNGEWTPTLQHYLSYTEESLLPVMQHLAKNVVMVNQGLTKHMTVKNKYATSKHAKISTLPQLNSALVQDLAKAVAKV

As to `COCCN1CCN(Cc2ccc(-c3n[nH]c4c3C(=O)c3c(NC(=O)NN5CCOCC5)cccc3-4)cc2)CC1` [Compound B16, N-[3-(4-{[4-(2-methoxyethyl)piperazinyl]methyl}phenyl)-4-oxoindeno[2,3-d]pyrazol-5-yl](morpholin-4-ylamino)carboxamide dihydrochloride], the IC50 was less than 5 nM in experiment [1]; greater than 100 nM in experiment [2]; 54 nM in experiment [3] (3 days, calcein AM, flow cytometry); less than 10 nM in experiment [4] (setting [7]); less than 500 nM in experiment [4] (setting [8]); less than 10 nM in experiment [4] (setting [9]). The results for the IC50 in experiment [5] and in experiment [6] (setting [10]) were less than 100 nM and less than 500 nM, respectively.
In the case of `CC(C)N1CCN(C(=O)COc2ccc(-c3n[nH]c4c3C(=O)c3c(NC(=O)NN5CCOCC5)cccc3-4)cc2)CC1` [Compound A37], the IC50 in experiment [1] was less than 50 nM; in experiment [2], less than 50 nM; in experiment [3] it was 85 nM; in experiment [4] (setting [7]), less than 100 nM; in experiment [4] (setting [8]), less than 500 nM; in experiment [4] (setting [9]) it was less than 50 nM. The IC50 in experiment [5] was less than 50 nM; in experiment [6] (kinase panel, 10 μM ATP, read-out: Ribosomal protein S6 kinase 3 (Rsk3) IC50), 10 to 100 nM; in experiment [6] (setting [10]) it was less than 50 nM.
